{"source": "patent US6355799B1", "about": "“Substituted benzene compounds, process for their preparation, and herbicidal and defoliant compositions containing them” (ISK Americas Incorporated, priority 1997, dated 2002)", "format_in_all_cases": "in vivo", "key": {"[1]": {"system": "field corn (Zea mays L., var. Dekalb 535, CORN)", "assay": "Post-emerge test, crop safety", "details": "phytotoxicity rating 0-100 (0 no damage, 100 complete death), 14 days after application", "method_in_brief": "(§1)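 Compounds in acetone were track-sprayed at 187 l/ha, 15–1000 g ai/ha, onto sandy loam pots. Pre-emerge seeds were sown one day before spraying, with surface watering afterwards. Post-emerge plants were at the 2–3 leaf stage and sprayed with 0.25% v/v non-ionic surfactant. Injury was rated 0–100 at 14 days.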"}, "[2]": {"system": "upland rice (Oryza sp., var. Tebonnet, RICE)", "assay": "Post-emerge test, crop safety", "details": "phytotoxicity rating 0-100 (0 no damage, 100 complete death), 14 days after application", "method_in_brief": "as §1"}, "[3]": {"system": "velvetleaf (Abutilon theophrasti, ABUTH)", "assay": "Post-emerge test, greenhouse herbicide activity screening", "details": "phytotoxicity rating 0-100 (0 no damage, 100 complete death), 14 days after application", "method_in_brief": "(§2)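 Plants grown in 10 cm pots of sandy loam mix received acetone-dissolved compounds through a moving flat-fan nozzle. Doses ranged from 15 to 1000 g ai/ha. Pre-emerge pots were seeded one day earlier, post-emerge pots 8–21 days earlier. Fourteen days on, each pot was graded 0–100 for damage.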"}, "[4]": {"system": "barnyardgrass (Echinochloa crus-galli, ECHCG)", "assay": "Post-emerge test, greenhouse herbicide activity screening", "details": "phytotoxicity rating 0-100 (0 no damage, 100 complete death), 14 days after application", "method_in_brief": "as §2"}, "[5]": {"system": "large crabgrass (Digitaria sanguinalis, DIGSA)", "assay": "Post-emerge test, greenhouse herbicide activity screening", "details": "phytotoxicity rating 0-100 (0 no damage, 100 complete death), 14 days after application", "method_in_brief": "as §2"}, "[6]": {"system": "lambsquarters (Chenopodium album, CHEAL)", "assay": "Post-emerge test, greenhouse herbicide activity screening", "details": "phytotoxicity rating 0-100 (0 no damage, 100 complete death), 14 days after application", "method_in_brief": "as §2"}, "[7]": {"system": "sicklepod (Cassia obtusifolia, CASOB)", "assay": "Post-emerge test, greenhouse herbicide activity screening", "details": "phytotoxicity rating 0-100 (0 no damage, 100 complete death), 14 days after application", "method_in_brief": "as §2"}, "[8]": {"system": "ivyleaf morningglory (Ipomoea hederacea, IPOHE)", "assay": "Post-emerge test, greenhouse herbicide activity screening", "details": "phytotoxicity rating 0-100 (0 no damage, 100 complete death), 14 days after application", "method_in_brief": "as §2"}, "[9]": {"system": "redroot pigweed (Amaranthus retroflexus, AMARE)", "assay": "Post-emerge test, greenhouse herbicide activity screening", "details": "phytotoxicity rating 0-100 (0 no damage, 100 complete death), 14 days after application", "method_in_brief": "as §2"}, "[10]": {"system": "green foxtail (Setaria viridis, SETVI)", "assay": "Post-emerge test, greenhouse herbicide activity screening", "details": "phytotoxicity rating 0-100 (0 no damage, 100 complete death), 14 days after application", "method_in_brief": "as §2"}, "[11]": {"system": "johnsongrass (Sorghum halepense, SORHA)", "assay": "Post-emerge test, greenhouse herbicide activity screening", "details": "phytotoxicity rating 0-100 (0 no damage, 100 complete death), 14 days after application", "method_in_brief": "as §2"}, "[12]": {"system": "common ragweed (Ambrosia artemisizfolia L., AMBEL)", "assay": "Post-emerge test, greenhouse herbicide activity screening", "details": "phytotoxicity rating 0-100 (0 no damage, 100 complete death), 14 days after application", "method_in_brief": "as §2"}, "[13]": {"system": "field corn (Zea mays L., var. Dekalb 535, CORN)", "assay": "Pre-emerge test, crop safety", "details": "pre-emerge, rated 14 days after application, 0 = no damage, 100 = complete death", "method_in_brief": "(§3)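 Compounds in acetone were track-sprayed at 15-1000 g ai/ha (187 l/ha) on sandy loam pots: pre-emerge one day after seeding, post-emerge at 2-3 leaf stage with 0.25% v/v non-ionic surfactant. Phytotoxicity was rated 14 days later on a 0 (no damage) to 100 (complete death) scale.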"}, "[14]": {"system": "upland rice (Oryza sp., var. Tebonnet, RICE)", "assay": "Pre-emerge test, crop safety", "details": "pre-emerge, rated 14 days after application, 0 = no damage, 100 = complete death", "method_in_brief": "as §3"}, "[15]": {"system": "velvetleaf (Abutilon theophrasti, ABUTH)", "assay": "Pre-emerge test, greenhouse herbicide activity screening", "details": "pre-emerge, rated 14 days after application, 0 = no damage, 100 = complete death", "method_in_brief": "as §1"}, "[16]": {"system": "barnyardgrass (Echinochloa crus-galli, ECHCG)", "assay": "Pre-emerge test, greenhouse herbicide activity screening", "details": "pre-emerge, rated 14 days after application, 0 = no damage, 100 = complete death", "method_in_brief": "as §1"}, "[17]": {"system": "large crabgrass (Digitaria sanguinalis, DIGSA)", "assay": "Pre-emerge test, greenhouse herbicide activity screening", "details": "pre-emerge, rated 14 days after application, 0 = no damage, 100 = complete death", "method_in_brief": "as §1"}, "[18]": {"system": "lambsquarters (Chenopodium album, CHEAL)", "assay": "Pre-emerge test, greenhouse herbicide activity screening", "details": "pre-emerge, rated 14 days after application, 0 = no damage, 100 = complete death", "method_in_brief": "as §1"}, "[19]": {"system": "sicklepod (Cassia obtusifolia, CASOB)", "assay": "Pre-emerge test, greenhouse herbicide activity screening", "details": "pre-emerge, rated 14 days after application, 0 = no damage, 100 = complete death", "method_in_brief": "as §1"}, "[20]": {"system": "ivyleaf morningglory (Ipomoea hederacea, IPOHE)", "assay": "Pre-emerge test, greenhouse herbicide activity screening", "details": "pre-emerge, rated 14 days after application, 0 = no damage, 100 = complete death", "method_in_brief": "as §1"}, "[21]": {"system": "green foxtail (Setaria viridis, SETVI)", "assay": "Pre-emerge test, greenhouse herbicide activity screening", "details": "pre-emerge, rated 14 days after application, 0 = no damage, 100 = complete death", "method_in_brief": "as §1"}, "[22]": {"system": "johnsongrass (Sorghum halepense, SORHA)", "assay": "Pre-emerge test, greenhouse herbicide activity screening", "details": "pre-emerge, rated 14 days after application, 0 = no damage, 100 = complete death", "method_in_brief": "as §1"}, "[23]": {"system": "common ragweed (Ambrosia artemisizfolia L., AMBEL)", "assay": "Pre-emerge test, greenhouse herbicide activity screening", "details": "pre-emerge, rated 14 days after application, 0 = no damage, 100 = complete death", "method_in_brief": "as §1"}, "[24]": {"system": "redroot pigweed (Amaranthus retroflexus, AMARE)", "assay": "Pre-emerge test, greenhouse herbicide activity screening", "details": "pre-emerge, rated 14 days after application, 0 = no damage, 100 = complete death", "method_in_brief": "as §1"}}, "data": [{"smiles": "COc1c(Cl)cc(F)c(-n2c(=O)cc(C(F)(F)F)n(C)c2=O)c1NS(=O)(=O)c1ccc(C)cc1", "note": "[2-26]", "values": [{"measurement": "Post-emerge Herbicidal Activity CORN (crop damage)", "setting": "[1]; 63 g ai/ha", "value": 0}, {"measurement": "Post-emerge Herbicidal Activity CORN (crop damage)", "setting": "[1]; 250 g ai/ha", "value": 0}, {"measurement": "Post-emerge Herbicidal Activity RICE (crop damage)", "setting": "[2]; 63 g ai/ha", "value": 0}, {"measurement": "Post-emerge Herbicidal Activity RICE (crop damage)", "setting": "[2]; 250 g ai/ha", "value": 0}, {"measurement": "Post-emerge Herbicidal Activity ABUTH", "setting": "[3]; 63 g ai/ha", "value": 0}, {"measurement": "Post-emerge Herbicidal Activity ABUTH", "setting": "[3]; 250 g ai/ha", "value": 40}, {"measurement": "Post-emerge Herbicidal Activity ECHCG", "setting": "[4]; 63 g ai/ha", "value": 0}, {"measurement": "Post-emerge Herbicidal Activity ECHCG", "setting": "[4]; 250 g ai/ha", "value": 0}, {"measurement": "Post-emerge Herbicidal Activity DIGSA", "setting": "[5]; 63 g ai/ha", "value": 0}, {"measurement": "Post-emerge Herbicidal Activity DIGSA", "setting": "[5]; 250 g ai/ha", "value": 0}, {"measurement": "Post-emerge Herbicidal Activity CHEAL", "setting": "[6]; 63 g ai/ha", "value": 0}, {"measurement": "Post-emerge Herbicidal Activity CHEAL", "setting": "[6]; 250 g ai/ha", "value": 20}, {"measurement": "Post-emerge Herbicidal Activity CASOB", "setting": "[7]; 63 g ai/ha", "value": 0}, {"measurement": "Post-emerge Herbicidal Activity CASOB", "setting": "[7]; 250 g ai/ha", "value": 0}, {"measurement": "Post-emerge Herbicidal Activity IPOHE", "setting": "[8]; 63 g ai/ha", "value": 0}, {"measurement": "Post-emerge Herbicidal Activity IPOHE", "setting": "[8]; 250 g ai/ha", "value": 30}, {"measurement": "Post-emerge Herbicidal Activity AMARE", "setting": "[9]; 63 g ai/ha", "value": 0}, {"measurement": "Post-emerge Herbicidal Activity AMARE", "setting": "[9]; 250 g ai/ha", "value": 20}, {"measurement": "Post-emerge Herbicidal Activity SETVI", "setting": "[10]; 63 g ai/ha", "value": 0}, {"measurement": "Post-emerge Herbicidal Activity SETVI", "setting": "[10]; 250 g ai/ha", "value": 0}, {"measurement": "Post-emerge Herbicidal Activity SORHA", "setting": "[11]; 63 g ai/ha", "value": 0}, {"measurement": "Post-emerge Herbicidal Activity SORHA", "setting": "[11]; 250 g ai/ha", "value": 0}, {"measurement": "Post-emerge Herbicidal Activity AMBEL", "setting": "[12]; 63 g ai/ha", "value": 0}, {"measurement": "Post-emerge Herbicidal Activity AMBEL", "setting": "[12]; 250 g ai/ha", "value": 0}, {"measurement": "Pre-emerge crop damage CORN (phytotoxicity rating, scale 0-100)", "setting": "[13]; 63 g ai/ha", "value": 0}, {"measurement": "Pre-emerge crop damage CORN (phytotoxicity rating, scale 0-100)", "setting": "[13]; 250 g ai/ha", "value": 0}, {"measurement": "Pre-emerge crop damage RICE (phytotoxicity rating, scale 0-100)", "setting": "[14]; 63 g ai/ha", "value": 0}, {"measurement": "Pre-emerge crop damage RICE (phytotoxicity rating, scale 0-100)", "setting": "[14]; 250 g ai/ha", "value": 0}, {"measurement": "Pre-emerge Herbicidal Activity ABUTH (phytotoxicity rating, scale 0-100)", "setting": "[15]; 63 g ai/ha", "value": 0}, {"measurement": "Pre-emerge Herbicidal Activity ABUTH (phytotoxicity rating, scale 0-100)", "setting": "[15]; 250 g ai/ha", "value": 0}, {"measurement": "Pre-emerge Herbicidal Activity ECHCG (phytotoxicity rating, scale 0-100)", "setting": "[16]; 63 g ai/ha", "value": 0}, {"measurement": "Pre-emerge Herbicidal Activity ECHCG (phytotoxicity rating, scale 0-100)", "setting": "[16]; 250 g ai/ha", "value": 0}, {"measurement": "Pre-emerge Herbicidal Activity DIGSA (phytotoxicity rating, scale 0-100)", "setting": "[17]; 63 g ai/ha", "value": 0}, {"measurement": "Pre-emerge Herbicidal Activity DIGSA (phytotoxicity rating, scale 0-100)", "setting": "[17]; 250 g ai/ha", "value": 0}, {"measurement": "Pre-emerge Herbicidal Activity CHEAL (phytotoxicity rating, scale 0-100)", "setting": "[18]; 63 g ai/ha", "value": 0}, {"measurement": "Pre-emerge Herbicidal Activity CHEAL (phytotoxicity rating, scale 0-100)", "setting": "[18]; 250 g ai/ha", "value": 90}, {"measurement": "Pre-emerge Herbicidal Activity CASOB (phytotoxicity rating, scale 0-100)", "setting": "[19]; 63 g ai/ha", "value": 0}, {"measurement": "Pre-emerge Herbicidal Activity CASOB (phytotoxicity rating, scale 0-100)", "setting": "[19]; 250 g ai/ha", "value": 0}, {"measurement": "Pre-emerge Herbicidal Activity IPOHE (phytotoxicity rating, scale 0-100)", "setting": "[20]; 63 g ai/ha", "value": 0}, {"measurement": "Pre-emerge Herbicidal Activity IPOHE (phytotoxicity rating, scale 0-100)", "setting": "[20]; 250 g ai/ha", "value": 0}, {"measurement": "Pre-emerge Herbicidal Activity SETVI (phytotoxicity rating, scale 0-100)", "setting": "[21]; 63 g ai/ha", "value": 0}, {"measurement": "Pre-emerge Herbicidal Activity SETVI (phytotoxicity rating, scale 0-100)", "setting": "[21]; 250 g ai/ha", "value": 0}, {"measurement": "Pre-emerge Herbicidal Activity SORHA (phytotoxicity rating, scale 0-100)", "setting": "[22]; 63 g ai/ha", "value": 0}, {"measurement": "Pre-emerge Herbicidal Activity SORHA (phytotoxicity rating, scale 0-100)", "setting": "[22]; 250 g ai/ha", "value": 0}, {"measurement": "Pre-emerge Herbicidal Activity AMBEL (phytotoxicity rating, scale 0-100)", "setting": "[23]; 63 g ai/ha", "value": 0}, {"measurement": "Pre-emerge Herbicidal Activity AMBEL (phytotoxicity rating, scale 0-100)", "setting": "[23]; 250 g ai/ha", "value": 0}, {"measurement": "Pre-emerge Herbicidal Activity AMARE (phytotoxicity rating, scale 0-100)", "setting": "[24]; 63 g ai/ha", "value": 0}, {"measurement": "Pre-emerge Herbicidal Activity AMARE (phytotoxicity rating, scale 0-100)", "setting": "[24]; 250 g ai/ha", "value": 80}]}]}
